Here are results for nine compounds from patent publication US5162336A, “Tetrahydro-pyrido-indoles as cholecystokinin and gastrin antagonists” (Rhone-Poulenc Rorer Pharmaceuticals Inc., priority 1990, dated 1992).

Assay [1] addresses T1, Gastrin receptor (Cavia porcellus, UniProt H0VZC5).
T1 construct: The fundic mucosa is gently scraped off the submucosa; from tissue; host or cells: gastric glands from fundic mucosa of Hartley guinea pig
T1 sequence (H0VZC5 1-426): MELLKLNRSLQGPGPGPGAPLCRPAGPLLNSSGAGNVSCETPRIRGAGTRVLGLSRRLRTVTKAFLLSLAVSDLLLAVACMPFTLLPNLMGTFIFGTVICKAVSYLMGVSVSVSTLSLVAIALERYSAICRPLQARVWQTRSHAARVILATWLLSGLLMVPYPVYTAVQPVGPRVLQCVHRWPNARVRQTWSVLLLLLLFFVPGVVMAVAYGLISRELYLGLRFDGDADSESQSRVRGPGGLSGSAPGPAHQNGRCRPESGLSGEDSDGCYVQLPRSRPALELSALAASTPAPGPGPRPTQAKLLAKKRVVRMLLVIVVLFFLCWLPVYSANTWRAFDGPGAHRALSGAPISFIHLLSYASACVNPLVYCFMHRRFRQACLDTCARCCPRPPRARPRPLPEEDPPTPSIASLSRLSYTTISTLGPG
The assay is described as follows: Gastrin receptor binding assay (displacement of 125I-(Leu-15)-Gastrin from guinea pig fundic glands). Also noted: species or system guinea pig (Hartley Strain). The settings on record: guinea pig fundic mucosa glands, 25° C., 30 min, read-out: In vitro Binding Data IC50 Gastrin. The protocol: (a) Phosphate Buffered Saline (PBS): 8.743 g NaCl, 523 mg K2 HPO4 and 76.8 mg NaH2 PO4 is dissolved in 1.0 liter of deionized water and the pH of the solution is adjusted to 7.3 with 5N NaOH.
(b) Buffer A: While adding Basal Medium Eagle (BME) containing Earle's Salts, L-glutamine and 25 mM HEPES, 3 liters of deionized water is stirred, followed by the addition and dissolution of […] of sodium bicarbonate. The solution is then equilibrated with 95% O2 /5% CO2 gas followed by titration to a pH of 7.4 with NaOH.
(c) Buffer B: 18.75 mg of collagenase and […] of BSA is dissolved in 25 ml of Buffer A.
(d) Buffer C: 0.3 g of BSA is dissolved in 300 ml of Buffer A.
(e) 6.25 mg Bacitracin is dissolved in 25 ml of Buffer A.
(f) ^125 I-(Leu-15)-Gastrin: 100 microcurie dissolved in 2.0 ml of Buffer A to make 50 microcurie/ml.
(g) ^125 I-(15-methionine)-Human Gastrin: 50 microcurie/ml.
(h) (Leu 15)-Gastrin: 5.2 mg of (Leu-15)- Gastrin is dissolved in 10 ml of Buffer A. At the time of assay 1:10 dilution is made and 10 μl assay tube is used.
A guinea pig (Hartley Strain) weighing 150-200 grams, is sacrificed by CO2 asphyxiation and the stomach immediately excised, cut along the greater curvature, cleaned out and immediately immersed in a beaker containing cold PBS, pH 7.3, to insure thorough cleaning. The fundic mucosa is gently scraped off the submucosa and added to a preweighed 50 ml plastic centrifuge tube containing 30 ml of cold Buffer A. The weight of the plastic centrifuge tube containing the buffer is then subtracted from the combined weight of the mucosa and the buffer-containing tube to give the weight of the mucosa. The weight of the mucosa thus determined is recorded for later calculations.
The mucosa is then washed twice in Buffer A. After the final wash, the tissue is minced and is placed in a 100-ml glass beaker containing about 1.0 ml of Buffer A, and washed twice again by repeated centrifugation at 50×g for 5 minutes each and aspiration of supernatant. The washed tissue fragments are then added to a glass Erlenmeyer flask containing 25 ml of Buffer B and incubated in a Dubnoff shaking water bath at 37° C. for 30 minutes in a 95% O2 - 5% CO2 atmosphere. After the incubation, the digested tissue fragments in the Collegenase-buffer solution are triturated, filtered through a 200-micron nylon mesh and centrifuged at 50×g for 5 minutes. The supernatant is aspirated and discarded, the tissue washed 2× in Buffer C, resuspended in same buffer, incubated in a 37° C. water bath in an atmosphere of 95% O2 - 5% CO2 for 5 minutes, and centrifuged. The pelleted glands are suspended in Buffer D at a desired concentration of 2x10^5 glands/ml to use in the receptor binding assay.
Six minisorp tubes (16×100 mm) are serially marked and divided into two groups thus: tubes #1, #2, and #3 are marked "T" for "Totals" and tubes #4, #5, and #6 are marked "NS" for "Non-Specifics." Into each of the six tubes are added 220 μl of prepared glands in Buffer D; 20 μl of Buffer A in tubes #1, #2, and #3; 10 μl, in tubes #4, #5 and #6; (10μ of (Leu-15)-Gastrin (25 μM) in tubes #4, #5, and #6. The six tubes are then transferred immediately to a 25° C. water bath and challenged each with 10 μl ^125 I-(Leu-15)-Gastrin diluted as per calculation. The tubes are then covered with a gas hood connected to a 95% O2 - 5% CO2 gas source and mechanically agitated in a shaker for 30 minutes.
At the end of the incubation period, the assay mixtures are each filtered through a Whatman glass fiber filter B on a Brandel tissue harvester and washed twice with Buffer A. The filters are pre-soaked in Buffer C before use. The filter strips are removed after the final wash and individual filters counted in a Gamma Counter. The counts from the "Non-Specific" tubes are then averaged and subtracted from the average "Totals" to give the Specific Counts. […]
For orientation: Displacement assays read how much labelled ligand stays bound in the presence of the test substance.

The subject of the next assay is gastrin. The conditions noted are these: rat (in vivo); cited from earlier work.
In assay [2] the test system is gastrin receptor. The settings on record: cited from earlier work.
A further assay addresses T2, CCK-A receptor (Rattus norvegicus, UniProt P30551).
T2 construct: from tissue; host or cells: pancreas membranes of Sprague-Dawley rat
T2 sequence (P30551 1-444): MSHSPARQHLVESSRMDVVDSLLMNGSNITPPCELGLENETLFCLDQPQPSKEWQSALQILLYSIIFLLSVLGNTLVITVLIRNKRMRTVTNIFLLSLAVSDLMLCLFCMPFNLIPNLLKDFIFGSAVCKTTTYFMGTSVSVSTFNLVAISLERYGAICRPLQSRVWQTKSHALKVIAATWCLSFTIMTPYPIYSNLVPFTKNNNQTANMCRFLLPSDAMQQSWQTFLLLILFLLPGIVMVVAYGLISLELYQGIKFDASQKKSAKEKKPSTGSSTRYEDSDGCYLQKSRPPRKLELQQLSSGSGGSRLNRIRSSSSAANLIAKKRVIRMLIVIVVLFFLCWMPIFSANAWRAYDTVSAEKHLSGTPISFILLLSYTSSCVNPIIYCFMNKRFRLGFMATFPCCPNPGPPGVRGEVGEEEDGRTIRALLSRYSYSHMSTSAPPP
The assay can be described thus: CCK-A receptor binding assay (displacement of 3H-L-364,718 from rat pancreas membranes). Also noted: species or system Sprague-Dawley rat. The conditions noted are these: 3H-L-364,718 0.2 nM, 37° C., 30 min, read-out: In vitro Binding Data IC50 CCK. The protocol:
Washer Buffer (for use with Brandel Cell Harvester):
30 liters of 50 mM Tris, ph 7.7: Dissolve 181.7 g. Tris base in 4 1. deionized water at room temperature. Adjust pH to 7.7 with 6 N HCl and Q.S. to 30 1.
50 mM Tris-Cl, 5 mM MgCl2, 5 mM dithio-thretiol, 0.14 mg/ml bacitracin, and 2 mg/ml bovine serum albumin.
1 liter of 5X stock buffer:
30.28 g. Tris base per 800 ml D.I. water 5.09 g. MgCl2 6 H2 O, pH to 7.7 at room temperature with 6N HCl and Q.S. 1 liter, store at 4° C.
250 ml working buffer kept on ice:
50 ml of 5X stock buffer 0.1928 g. dithiothretiol (5 mM), 35 mg bacitracin (0.14 mg/ml), and 0.5 g. BSA (2mg/ml).
Unlabeled L-364,718(nonpeptide ligand):
Unlabeled L-364,718 (300 nM final concentration) is used to define nonspecific binding. A 3 mM solution is made in absolute ethanol and stored in a scintillation vial at -70° C. Aliquots are diluted 100-fold in the assay.
A Sprague-Dawley rat is sacrificed by asphyxiation with carbon dioxide and the pancreas removed. The tissue is immersed in cold wash buffer and carefully trimmed of fat, connective tissue, blood vessels, blotted and weighed. The tissue is homogenized in a Sorvall SS-34 centrifuge tube in 50 volumes of wash buffer using a Polytron at setting 7 for 15 seconds. The tissue is centrifuged (Sorvall SS-34) at 19,000 rpm for 10 min. The supernatant is poured off and the pellet resuspended in sufficient buffer to obtain a contraction of 40 mg tissue wet weight/ml. Separate aliquots (2,3ml) are placed in each of 8 centrifuge tubes and centrifuged as before. The supernatants are poured off and the pellets stored at -70° C. Stored pellets are sufficient for the assay of 160 tubes and are stable for 1-2 months.
During the assay the stored membranes are resuspended in 40 ml of assay buffer by scraping the pellet off the wall of the centrifuge tube and washing it into a teflon-glass homogenizer. Membranes are resuspended by 5 passes with the teflon pestle and the membranes stored on ice until ready for use.
Preparation of Compounds:
Compounds are prepared in DMSO (dimethyl sulfoxide) or in assay buffer. The majority of structures active as CCK antagonists generally require DMSO for complete solubility. Approximately 2-3 mg of compound is weighed directly into a 13×100 mm test tube and sufficient DMSO added to obtain a working stock solution at a concentration 100 fold greater than the highest concentration being tested in the assay. A total of 10 μl of each concentration of drug is added into a final volume of 1 ml to yield a 100 fold dilution of the, working stock solution. Control binding tubes ("totals and nonspecifics") are also treated with 10 μl DMSO.
^3 H-L-364,718 is obtained from New England Nuclear (Cat. #971) and is used as supplied. The final assay concentration of ^3 H-L-364,718 in assay buffer should be 0.2 nM in a final assay volume of 1 ml. ^3 H-L-364,718 (0.2 pmol) is added into the assay in a volume of 25 μl (8 nM working stock solution). The required dilution (usually>1000 fold) is obtained by dividing the working stock concentration into the concentration of the specific lot.
Samples are prepared in triplicate and a "total" (buffer addition) and "nonspecific" (300 nM unlabeled L-364,718) set of tubes included in each set of 24 tubes. The remaining 6 sets of triplicates are used either for screening or IC50 determinations. The order of addition is drugs-DMSO, buffer, unlabeled L-364,718, ^3 H-L-364,718, and to start the assay, membranes.
While tubes are incubating a shaking water bath at 37° C. for 30 min Brandel deposit/dispense filters are presoaked in wash buffer. Following the end of the incubation, sets of 24 tubes are rapidly washed with assay buffer as follows. Assay buffer is added to the incubation tubes to the height of the uppermost cross support in the standard Brandel test tube rack and the contents immediately aspirated. This process is repeated twice more, the filter removed, marked and the next set of 24 tubes processed. […]

The test system of assay [3] is gastrin receptor. The settings on record: cited from earlier work. This is another data set of the same source.
Assay [4] concerns CCK-A (peripheral CCK) receptor. The settings on record: second generation proglumide analogues; cited from earlier work.
The test system of assay [5] is peripherial gastrin and CCK-B (brain) receptors. The conditions noted are these: cited from earlier work.

Turning to `CC(C)C[C@@H](NC(=O)[C@@H]1Cc2c([nH]c3ccccc23)CN1C(=O)Nc1ccc(Cl)c(Cl)c1)C(=O)N[C@H](CC(=O)O)C(N)=O` [Example 71], the IC50 (commonly the point on the concentration scale where inhibition reaches its midpoint) at Gastrin receptor [1] worked out at 4 µM.
Consider Boc-Trp-Leu-gAsp-m(R,S)Phe-NH2, for which the “block the effects of gastrin” value with gastrin was “block the effects of gastrin”. Also, the “binding to the gastrin receptor” value in the assay on gastrin receptor [2] (analogues of CCK-4 with partial retroinverso modifications) is recorded as “bind strongly”.
As to `COc1ccc(NC(=O)N2Cc3[nH]c4ccccc4c3C[C@@H]2C(=O)Nc2ccccc2C(=O)N2CCCC2)cc1` [Example 21, pyrrolidine-2-N-[(3R)-2-(4-methoxyphenylcarbamoyl)-1,2,3,4-tetrahydro-9H-pyrido[3,4-b]indole-3-carboxyl]aminobenzamide], the IC50 on Gastrin receptor [1] turned out to be 90 µM.
For `NC(=O)[C@H](CC(=O)OCc1ccccc1)NC(=O)[C@H]1Cc2c([nH]c3ccccc23)CN1C(=O)c1ccccc1` [Example 7, N-[(3R)-2-benzoyl-1,2,3,4-tetrahydro-9H-pyrido[3,4-b]indole-3-carboxyl]-L-aspartic acid amide β-benzyl ester], the IC50 on CCK-A receptor is 25 µM.
Turning to Boc-Trp-Leu-.PSI.(CH2 NH)-Asp-Phe-NH2, the agonist activity result in the assay with gastrin receptor [3] is “no agonist activity”. For the same compound, in the assay on gastrin receptor [2] (compared with Boc-Trp-Leu-Asp-Phe-NH2), the binding affinity result is reported as “same binding affinity as Boc-Trp-Leu-Asp-Phe-NH2”.
Turning to `NC(=O)[C@H](CC(=O)O)NC(=O)[C@@H]1CCCN1C(=O)[C@H]1Cc2c([nH]c3ccccc23)CN1C(=O)Nc1ccc(Cl)c(Cl)c1` [Example 25], at Gastrin receptor [1], the IC50 stood at 0.23 µM.
With `CCCCCN(CCCOC)C(=O)C(CCC(=O)O)NC(=O)c1ccc(Cl)c(Cl)c1` (centres unmarked) [Loxiglumide], the “receptor affinity and selectivity” value in assay [4] is “considerably better receptor affinity and selectivity”.
Take `Cc1cccc(NC(=O)N[C@@H]2N=C(c3ccccc3)c3ccccc3N(C)C2=O)c1` [L-365,260]: the “selectivity for peripheral gastrin and CCK-B (brain) receptors” value in assay [5] was “selective for the peripherial gastrin and CCK-B (brain) receptors”.
For the compound `CCCCCN(CCCCC)C(=O)C(CCC(=O)O)NC(=O)c1ccc(Cl)c(Cl)c1` (centres unmarked) [Lorglumide], in assay [4], the “receptor affinity and selectivity” value is “considerably better receptor affinity and selectivity”.
